Source: ChEMBL document CHEMBL1817565, “Synthesis and antimalarial evaluation of novel benzopyrano[4,3-b]benzopyran derivatives” (Bioorg Med Chem, 2011)

Assays:
Plasmodium falciparum = test: Antimalarial activity against chloroquine-sensitive Plasmodium falciparum 3D7 infected in erythrocytes assessed as [3H] incorporation after 48 hrs by scintillation counter; type: functional, organism-based
[1] = Cytotoxicity against human NFF cells at 50 uM after 3 days by sulforhodamine B assay; type: cell-based; settings: read-out: INH
[2] = Selectivity ratio of cytotoxicity against human NFF cells to IC50 for Plasmodium falciparum 3D7; type: cell-based

Question: With `COc1cc(OC)c2c(c1OC)O[C@H]1c3c(OC)cc(OC)c(OC)c3O[C@H](c3ccccc3)[C@H]1[C@@H]2/C=C/c1ccccc1` [DEPENDENSIN] as the molecule, how does the IC50 (Plasmodium falciparum) read?
Answer: 3.9 µM

Question: And the cytotoxicity at 72 h, 50 µM [1]?
Answer: 46.9%

Question: And the selectivity ratio [2]?
Answer: 10

Question: Which results are given for `COc1cc(OC)c2c(c1OC)O[C@H]1c3c(OC)cc(OC)c(OC)c3O[C@H](c3ccc(Cl)cc3)[C@H]1[C@@H]2/C=C/c1ccc(Cl)cc1`?
Answer: IC50 (Plasmodium falciparum): 3.3 µM; cytotoxicity at 72 h, 50 µM [1]: 98.4%

Question: Which results are given for `COc1cc(OC)c2c(c1OC)O[C@H]1c3c(OC)cc(OC)c(OC)c3O[C@H](c3ccc(C)cc3)[C@H]1[C@@H]2/C=C/c1ccc(C)cc1`?
Answer: IC50 (Plasmodium falciparum): 1.9 µM; cytotoxicity at 72 h, 50 µM [1]: 47.2%; selectivity ratio [2]: 10

Question: Which IC50 (Plasmodium falciparum) does the source give for `COc1cc(OC)c2c(c1OC)O[C@H]1c3c(OC)cc(OC)c(OC)c3O[C@H](c3ccc(Br)cc3)[C@H]1[C@@H]2/C=C/c1ccc(Br)cc1` here?
Answer: 2.9 µM

Question: What about the cytotoxicity at 72 h, 50 µM [1] of the same molecule?
Answer: 46.3%

Question: What about the selectivity ratio [2] of the same molecule?
Answer: 10

Question: With `COc1ccc(/C=C/[C@@H]2c3c(OC)cc(OC)c(OC)c3O[C@H]3c4c(OC)cc(OC)c(OC)c4O[C@H](c4ccc(OC)cc4)[C@@H]23)cc1` as the molecule, how does the IC50 (Plasmodium falciparum) read?
Answer: 3.2 µM

Question: And the cytotoxicity at 72 h, 50 µM [1]?
Answer: 43.2%

Question: And the selectivity ratio [2]?
Answer: 10
